Data from ChEMBL document CHEMBL1146703, “Mannopeptimycin esters and carbonates, potent antibiotic agents against drug-resistant bacteria” (2004).
Converted amounts (≈) assume the structure as drawn.

Columns and labels:
Escherichia coli = experiment: Antibacterial activity against Escherichia coli at </=64 ug/mL; No activity; assay type: functional, organism-based
Enterococcus faecalis [1] = experiment: Antibacterial activity against Enterococcus faecalis; Range is 64->64; assay type: functional
Staphylococcus aureus [2] = experiment: Antibacterial activity against Staphylococcus aureus; Range is 8-16; assay type: functional
Enterococcus faecalis [3] = experiment: Antibacterial activity against Enterococcus faecalis; Range is 4-32; assay type: functional
Staphylococcus aureus [4] = experiment: Antibacterial activity against Staphylococcus aureus; assay type: functional
Enterococcus faecalis [5] = experiment: Antibacterial activity against Enterococcus faecalis; Range is 16-64; assay type: functional
Staphylococcus aureus [6] = experiment: Antibacterial activity against Staphylococcus aureus; Range is 4-8; assay type: functional

SMILES | MIC (Escherichia coli) | MIC (Enterococcus faecalis [1]) | MIC (Staphylococcus aureus [2]) | MIC (Enterococcus faecalis [3]) | MIC (Staphylococcus aureus [4]) | MIC (Enterococcus faecalis [5]) | MIC (Staphylococcus aureus [6])
C[C@@H](c1ccccc1)[C@@H]1NC(=O)CNC(=O)[C@H](CO)NC(=O)[C@@H]([C@@H](O)[C@@H]2CNC(N)N2[C@H]2O[C@H](CO)[C@@H](O)[C@H](O)[C@@H]2O)NC(=O)[C@H]([C@@H](O)[C@@H]2CNC(N)N2)NC(=O)[C@@H](Cc2ccc(O[C@H]3O[C@H](COC(=O)Cc4ccccc4)[C@@H](O[C@H]4O[C@H](CO)[C@@H](O)[C@H](O)[C@@H]4O)[C@H](O)[C@@H]3O)cc2)NC1=O (some centres undefined) | No activity | 64 µg/mL (≈ 45.2 µM) | 16 µg/mL (≈ 11.3 µM) |  |  |  | 
CCCC(CCC)C(=O)OC[C@H]1O[C@H](Oc2ccc(C[C@H]3NC(=O)[C@H]([C@@H](C)c4ccccc4)NC(=O)CNC(=O)[C@H](CO)NC(=O)[C@@H]([C@@H](O)[C@@H]4CNC(N)N4[C@H]4O[C@H](CO)[C@@H](O)[C@H](O)[C@@H]4O)NC(=O)[C@H]([C@@H](O)[C@@H]4CNC(N)N4)NC3=O)cc2)[C@@H](O)[C@@H](O)[C@@H]1O[C@H]1O[C@H](CO)[C@@H](O)[C@H](O)[C@@H]1O (some centres undefined) | No activity |  |  | 32 µg/mL (≈ 22.4 µM) | 4 µg/mL (≈ 2.81 µM) |  | 
C[C@@H](c1ccccc1)[C@@H]1NC(=O)CNC(=O)[C@H](CO)NC(=O)[C@@H]([C@@H](O)[C@@H]2CNC(N)N2[C@H]2O[C@H](CO)[C@@H](O)[C@H](O)[C@@H]2O)NC(=O)[C@H]([C@@H](O)[C@@H]2CNC(N)N2)NC(=O)[C@@H](Cc2ccc(O[C@H]3O[C@H](COC(=O)OCc4ccccc4)[C@@H](O[C@H]4O[C@H](CO)[C@@H](O)[C@H](O)[C@@H]4O)[C@H](O)[C@@H]3O)cc2)NC1=O (some centres undefined) | No activity |  |  |  |  | 64 µg/mL (≈ 44.6 µM) | 8 µg/mL (≈ 5.58 µM)
